Where a name gives a salt, the structure may show the parent alone. Where only a bound is given, the exact number is not on record here.

Assay [1] has as its target Cbl-b (residues 36-427) (Homo sapiens, UniProt Q13191). The assay can be described thus: Cbl-b binding assay (SPR, Biacore T200). Conditions: 20° C., 1:1 binding model. In outline: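 Affinities derived from global 1:1 steady-state or kinetic fits of double-referenced, solvent-corrected SPR data, 20 °C, NeutrAvidin-capture chip. Compound series (top 100 or 50 μM, 8–10 points) injected 50 s, 90–180 s dissociation. Asterisked values used 50 mM instead of 100 mM NaCl and 30 nM Src kinase.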
(In general: SPR reads the build-up and loss of mass on a sensor chip optically.)

The target of assay [2] is Cbl-b (Homo sapiens, UniProt Q13191). The assay can be described thus: Cbl-b activity assay (Cbl-b inhibition assay), TR-FRET of Cbl-b interaction with UbcH5B-Ub. Format: biochemical. Conditions: assay buffer with 100 mM NaCl, 60 nM Src kinase; read-out: Cbl-b activity IC50. In outline:
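TR-FRET readout of Cbl-b binding to Bodipy-fluorescein N-terminally labeled Ub conjugated to UbcH5B C85K, measured with compound present. After compound incubation, 60 nM Src kinase with 1 mM ATP and 5 mM MgCl2 (final) was added for 1.5 h, then a further 1 h incubation; asterisked values used 50 mM NaCl buffer and 30 nM Src.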
For orientation: TR-FRET usually uses a lanthanide donor and a delayed reading to cut background.

For assay [3], the system named is T-cell. As to the kind of experiment: IL-2 secretion from T-cells stimulated with anti-CD3 antibody alone (Biological Example 2). Format: cell-based. Conditions: primary human total T-cells, read-out: IL-2 secretion, Anti-CD3 stimulation, fold change over baseline; for fold induction at 1 µM: 1 μM compound; for fold induction at 8 µM: 8 μM compound.

Sequence of Cbl-b (residues 36-427) (Q13191 36-427): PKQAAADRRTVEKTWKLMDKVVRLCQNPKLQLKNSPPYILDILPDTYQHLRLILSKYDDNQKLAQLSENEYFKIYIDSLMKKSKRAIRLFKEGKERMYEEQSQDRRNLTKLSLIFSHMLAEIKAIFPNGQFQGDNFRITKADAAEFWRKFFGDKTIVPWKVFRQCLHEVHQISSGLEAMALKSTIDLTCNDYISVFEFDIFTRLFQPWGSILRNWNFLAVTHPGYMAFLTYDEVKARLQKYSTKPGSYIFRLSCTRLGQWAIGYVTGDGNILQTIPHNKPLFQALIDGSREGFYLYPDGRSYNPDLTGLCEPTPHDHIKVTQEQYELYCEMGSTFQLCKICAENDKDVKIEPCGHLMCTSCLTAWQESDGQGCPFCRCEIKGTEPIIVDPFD
Sequence of Cbl-b (Q13191 36-427): as above

In general, Kd refers to the concentration at which binding is half-saturated. A high value points to a looser complex. Usually IC50 stands for the concentration needed to halve the response being measured. `Cn1cnnc1CC(C)(C)c1cccc(N2Cc3c(cccc3C(F)(F)F)C2=O)c1` [Compound 300, 2-(3-(2-methyl-1-(4-methyl-4H-1,2,4-triazol-3-yl)propan-2-yl)phenyl)-4-(trifluoromethyl)isoindolin-1-one]: in assay [1], the Kd lay in the range of 100 to 300 nM. For the same molecule, the IC50 in assay [2] was less than 100 nM.
The molecule `Cn1cnnc1CC1(c2cccc(N3Cc4c(cccc4C(F)(F)F)C3=O)c2)COC1` [Compound 301, 2-[3-[3-[(4-methyl-1,2,4-triazol-3-yl)methyl]oxetan-3-yl]phenyl]-4-(trifluoromethyl)isoindolin-1-one] yielded a Kd in assay [1] of 301 to 1000 nM. Further, in assay [2], the IC50 was less than 100 nM.
The corresponding values for `C[C@H](Sc1nncn1C)c1cccc(NC(=O)c2cc3cc(OCC(=O)NCCN)ccc3cn2)c1` [Compound 311, 6-[2-(2-aminoethylamino)-2-oxo-ethoxy]-N-[3-[(1S)-1-[(4-methyl-1,2,4-triazol-3-yl)sulfanyl]ethyl]phenyl]isoquinoline-3-carboxamide hydrochloride] are 100 to 300 nM and 100 to 300 nM.
The corresponding values for `Cc1cnnn1C[C@@H](C)c1cccc(NC(=O)c2cccc(C(F)(F)F)n2)c1` [Compound 312a, (S)-N-(3-(1-(5-methyl-1H-1,2,3-triazol-1-yl)propan-2-yl)phenyl)-6-(trifluoromethyl)picolinamide] are 301 to 1000 nM and 100 to 300 nM.
The corresponding values for `C[C@H](Cc1nncn1C)c1cccc(NC(=O)c2nc3c(C4CC4)cccc3[nH]2)c1` [Compound 319, 4-cyclopropyl-N-[3-[(1R)-1-methyl-2-(4-methyl-1,2,4-triazol-3-yl)ethyl]phenyl]-1H-benzimidazole-2-carboxamide] are 100 to 300 nM and 100 to 300 nM.
On to `C[C@H](Cc1nncn1C)c1cccc(NC(=O)c2cc(C(C)(C)O)cc(C(F)(F)F)n2)c1` [Compound 320, 4-(2-hydroxypropan-2-yl)-N-[3-[(2R)-1-(4-methyl-4H-1,2,4-triazol-3-yl)propan-2-yl]phenyl]-6-(trifluoromethyl)pyridine-2-carboxamide], for which the Kd in assay [1] was 100 to 300 nM. Further, in assay [2], the 50% inhibitory concentration (IC50) lay in the range of 100 to 300 nM.
With `C[C@H](Cc1nncn1C)c1cccc(NC(=O)c2cccc(C(C)(C)C)n2)c1` [Compound 321, (R)-6-(Tert-butyl)-N-(3-(1-(4-methyl-4H-1,2,4-triazol-3-yl)propan-2-yl)phenyl)picolinamide], the Kd in assay [1] fell in the range of 100 to 300 nM. In addition, the IC50 in assay [2] is less than 100 nM.
`CC1CCc2c1n[nH]c2C(=O)Nc1cccc([C@H](C)Cc2nncn2C)c1` (stereo partly drawn) [Compound 323, 6-Methyl-N-(3-((R)-1-(4-methyl-4H-1,2,4-triazol-3-yl)propan-2-yl)phenyl)-2,4,5,6-tetrahydrocyclopenta[c]pyrazole-3-carboxamide]: in assay [1], the Kd lay within 100 to 300 nM. For the same molecule, the IC50 in assay [2] was in the range of 100 to 300 nM.
In assay [1], `Cc1cc(C(=O)Nc2cccc([C@H](C)Cc3nocc3C)c2)nc(C2CC2)n1` [Compound 330, (R)-2-cyclopropyl-6-methyl-N-(3-(1-(4-methylisoxazol-3-yl)propan-2-yl)phenyl)pyrimidine-4-carboxamide] displayed a Kd of 301 to 1000 nM. In addition, the 50% inhibitory concentration (IC50) in assay [2] was less than 100 nM.
The corresponding values for `C[C@H](Cc1nncn1C)c1cc(NC2COC2)nc(N2Cc3c(cccc3C(F)(F)F)C2=O)c1` [Compound 352, 2-{4-[(2R)-1-(4-methyl-4H-1,2,4-triazol-3-yl)propan-2-yl]-6-[(oxetan-3-yl)amino]pyridin-2-yl}-4-(trifluoromethyl)-2,3-dihydro-1H-isoindol-1-one] are 100 to 300 nM and less than 100 nM.
For the molecule `CC(C)Nc1cc([C@H](C)Cc2nncn2C)cc(N2Cc3c(cccc3C(F)(F)F)C2=O)n1` [Compound 353, 2-{4-[(2R)-1-(4-methyl-4H-1,2,4-triazol-3-yl)propan-2-yl]-6-[(propan-2-yl)amino]pyridin-2-yl}-4-(trifluoromethyl)-2,3-dihydro-1H-isoindol-1-one], the Kd in assay [1] was less than 100 nM. In assay [2], the IC50 was less than 100 nM.
In assay [1], `CCOc1cc([C@H](C)Cc2nncn2C)cc(N2Cc3c(cccc3C(F)(F)F)C2=O)n1` [Compound 358, (R)-2-(6-ethoxy-4-(1-(4-methyl-4H-1,2,4-triazol-3-yl)propan-2-yl)pyridin-2-yl)-4-(trifluoromethyl)isoindolin-1-one] returned a Kd of less than 100 nM. Further, in assay [2], the IC50 is less than 100 nM.
For the molecule `CCNc1cc([C@H](C)Cc2nncn2C)cc(N2Cc3c(cccc3C(F)(F)F)C2=O)n1` [Compound 360, (R)-2-(6-(ethylamino)-4-(1-(4-methyl-4H-1,2,4-triazol-3-yl)propan-2-yl)pyridin-2-yl)-4-(trifluoromethyl)isoindolin-1-one], the Kd in assay [1] was less than 100 nM. Further, the IC50 in assay [2] was less than 100 nM.
Molecule `CNc1cc([C@H](C)Cc2nncn2C)cc(N2Cc3c(cccc3C(F)(F)F)C2=O)n1` [Compound 363, (R)-2-(4-(1-(4-methyl-4H-1,2,4-triazol-3-yl)propan-2-yl)-6-(methylamino)pyridin-2-yl)-4-(trifluoromethyl)isoindolin-1-one] displayed an equilibrium dissociation constant (Kd) in assay [1] of less than 100 nM. The IC50 in assay [2] was less than 100 nM.
For the molecule `Cn1cnnc1CC1(c2cccc(N3Cc4c(cc(CN5CC[C@H](F)C5)cc4C(F)(F)F)C3=O)c2)COC1` [Compound 410, 6-{[(3S)-3-fluoropyrrolidin-1-yl]methyl}-2-(3-{3-[(4-methyl-4H-1,2,4-triazol-3-yl)methyl]oxetan-3-yl}phenyl)-4-(trifluoromethyl)-2,3-dihydro-1H-isoindol-1-one], in assay [3], the fold induction at 1 µM was more than 0.201 and the fold induction at 8 µM was more than 0.201. For the same molecule, the IC50 in assay [2] was less than 100 nM.
As to `Cn1cnnc1CC1(c2cccc(N3Cc4c(cc(CN5CC[C@@H](C#N)C5)cc4C(F)(F)F)C3=O)c2)COC1` [Compound 421, (R)-1-((2-(3-(3-((4-methyl-4H-1,2,4-triazol-3-yl)methyl)oxetan-3-yl)phenyl)-3-oxo-7-(trifluoromethyl)isoindolin-5-yl)methyl)pyrrolidine-3-carbonitrile], in assay [3], the fold induction at 1 µM is 0.101 to 0.15 and the fold induction at 8 µM is more than 0.201. The IC50 in assay [2] was less than 100 nM.
As to `Cn1cnnc1CC1(c2cccc(N3Cc4c(cc(CN5C[C@H]6C[C@H]6C5)cc4C(F)(F)F)C3=O)c2)COC1` [Compound 429, 6-(((1R,5S)-3-azabicyclo[3.1.0]hexan-3-yl)methyl)-2-(3-(3-((4-methyl-4H-1,2,4-triazol-3-yl)methyl)oxetan-3-yl)phenyl)-4-(trifluoromethyl)isoindolin-1-one], in assay [3], the fold induction at 1 µM was more than 0.201 and the fold induction at 8 µM is more than 0.201. Moreover, in assay [2], the IC50 was less than 100 nM.
As for `Cn1cnnc1CC1(c2cccc(N3Cc4c(cc(CN5CCC[C@H](F)C5)cc4C(F)(F)F)C3=O)c2)COC1` [Compound 432, 6-{[(3S)-3-fluoropiperidin-1-yl]methyl}-2-(3-{3-[(4-methyl-4H-1,2,4-triazol-3-yl)methyl]oxetan-3-yl}phenyl)-4-(trifluoromethyl)-2,3-dihydro-1H-isoindol-1-one], the fold induction at 1 µM in assay [3] is more than 0.201. Moreover, in assay [2], the IC50 was less than 100 nM.
In assay [1], `C[C@H](c1cc2c(c(C(F)(F)F)c1)CN(c1cccc(C3(C(F)(F)c4nncn4C)COC3)c1)C2=O)N1CC[C@H](F)C1` [Example 571, 2-(3-(3-(difluoro(4-methyl-4H-1,2,4-triazol-3-yl)methyl)oxetan-3-yl)phenyl)-6-((R)-1-((S)-3-fluoropyrrolidin-1-yl)ethyl)-4-(trifluoromethyl)isoindolin-1-one] came in with a Kd of less than 100 nM. Besides, the IC50 in assay [2] was less than 100 nM.
The molecule `C[C@H](c1cc2c(c(C(F)(F)F)c1)CN(c1cccc(C3([C@@H](F)c4nncn4C)COC3)c1)C2=O)N1CCC2(CC2)C1` [Example 576, 6-((R)-1-(5-azaspiro[2.4]heptan-5-yl)ethyl)-2-(3-(3-((R)-fluoro(4-methyl-4H-1,2,4-triazol-3-yl)methyl)oxetan-3-yl)phenyl)-4-(trifluoromethyl)isoindolin-1-one] showed a Kd in assay [1] of less than 100 nM. The IC50 in assay [2] is less than 100 nM.
Turning to `Cn1cnnc1CC1(c2cccc(N3Cc4c(cc(CN5CCC(C)(F)CC5)cc4C(F)(F)F)C3=O)c2)COC1` [Example 620, 6-((4-fluoro-4-methylpiperidin-1-yl)methyl)-2-(3-(3-((4-methyl-4H-1,2,4-triazol-3-yl)methyl)oxetan-3-yl)phenyl)-4-(trifluoromethyl)isoindolin-1-one], the dissociation constant (Kd) in assay [1] was less than 100 nM. Also, the IC50 in assay [2] was less than 100 nM.
In assay [1], `Cn1cnnc1[C@@H](F)C1(c2cccc(N3Cc4c(cc(CN5CCC(F)CC5)cc4C(F)(F)F)C3=O)c2)COC1` [Example 670a, (S)-2-(3-(3-(fluoro(4-methyl-4H-1,2,4-triazol-3-yl)methyl)oxetan-3-yl)phenyl)-6-((4-fluoropiperidin-1-yl)methyl)-4-(trifluoromethyl)isoindolin-1-one] gave a Kd of less than 100 nM. In addition, the IC50 in assay [2] is less than 100 nM.
`Cn1cnnc1[C@H](F)C1(c2cccc(N3Cc4c(cc(CN5CCC(F)CC5)cc4C(F)(F)F)C3=O)c2)COC1` [Example 670b, (R)-2-(3-(3-(fluoro(4-methyl-4H-1,2,4-triazol-3-yl)methyl)oxetan-3-yl)phenyl)-6-((4-fluoropiperidin-1-yl)methyl)-4-(trifluoromethyl)isoindolin-1-one] gave a Kd in assay [1] of less than 100 nM. In addition, the IC50 in assay [2] was less than 100 nM.

Values taken from patent US20220324835A1 (Nurix Therapeutics, Inc., priority 2018, published 2022).
